According to patent US20210393645A1, “TREATMENT FOR PROGRESSIVE MULTIPLE SCLEROSIS” (UTI LIMITED PARTNERSHIP, priority 2016, published 2021):
Entries after “also recorded” stand apart in the source; their conditions may differ. Structures can show the parent of a compound that is named as a salt. Where two headings read alike, the source gives them in different places.

Assays:
T-cells = assay: Proliferation of T-lymphocytes (3H-thymidine) in anti-CD3/anti-CD28 activated splenocytes; type: cell-based, mouse; conditions: for inhibition at 10 µM: Mus musculus, T-cell, 72 h, read-out: mean reduction of 3H-thymidine incorporation (T-cell proliferation); for toxic effects in the T-cell proliferation test: data not shown
Experimental: A previously published protocol was used for isolating and activating T-cells (Keough et al., Nature Comm 7:11312, 2016). Spleens from female C57B16 mice were harvested and after mechanical dissociation the cell suspension was passed through a 70 μm cell strainer and separated by Ficoll gradient (1800 RPM, 30 min). Splenocytes were plated (2.5×10^5 cells in 100 μl/well) in anti-CD3 antibody coated 96-well plates (1,000 ng m1^−1 plate-bound anti-CD3 and 1,000 ng m1^−1 anti-CD28 suspended in media) to activate T-cells. Directly before plating, wells were treated with respective drugs in a final concentration of 10 μM. Cells were cultured in RPMI 1640 medium, supplemented with 10% FBS, 1 μM sodium pyruvate, 2 mM L-alanyl-L-glutamine, 1% penicillin/streptomycin, 1% HEPES and 0.05 mM 2-mercaptoethanol (all supplements were from Invitrogen). After 48 h, ^3H-thymidine was added in a concentration of 1 μCi per well, and cells were harvested after 24 h on filter mats. Mats were then evaluated for radioactivity (counts per minute) using a liquid scintillation counter.

human neurons [1] = assay: Iron (FeSO4) mediated neurotoxicity screening, MAP-2 positive neurons counted; type: cell-based; conditions: for viability at 10 µM: Homo sapiens, Neuron, read-out: Drug % control (mean): number of neurons normalized to untreated control
Procedure, shortened: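 Fetal human neurons (15-20 wk), plated with cytosine arabinoside, were pre-incubated 1 h with compounds (10 mM DMSO stocks) before FeSO4 at 25-50 μM final. Cells fixed a day later; MAP-2 immunostaining plus Hoechst nuclei imaged automatically, sites per well averaged; quadruplicates.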

human neurons [2] = assay: Live cell imaging of propidium iodide positive neurons challenged with FeSO4; type: cell-based; conditions: FeSO4 50 μM, pre-treatment 1 h
Experimental: Neurons were prepared as described above. Directly after the addition of FeSO4 to healthy neurons, the live cell-permeant Hoechst 33342 (1:2 diluted in AIM-V medium, nuclear blue; ThermoFisher Scientific, Grand Island, NY, USA) and the live cell-impermeable propinium iodide (PI, 1:20 diluted in AIM-V medium) were added in a volume of 20 μI (Sigma-Aldrich). In compromised cells, PI could now diffuse across the plasma membrane. Live cell imaging was performed using the automated ImageXpress® imaging system under controlled environmental conditions (37° C. and 5% CO2). Images were taken from 9 sites per well at baseline and then every 30 min for 12h. After export with MetaXpress®, videos were edited with ImageJ (NIH) in a uniform manner. Nuclei were pseudo colored in cyan, PI-positive cells in red.
Live cell imaging over 12 h supported the neuroprotective effects of drugs. We selected indapamide and desipramine for live imaging studies.

[3] = Hydroxyl radical antioxidant capacity (HORAC) assay; type: biochemical; conditions: vs 12.5 μM gallic acid (=1), 60 min
Experimental: In this assay, hydroxyl radicals generated by a Co(II)-mediated Fenton-like reaction oxidize fluorescein causing loss of fluorescence (Ou et al., J Argricultural Food Chemistry 50:2772-2777, 2002). The presence of an anti-oxidant reduces the loss of fluorescence and this can be monitored every 5 min over a period of 60 min with a Spectra Max Gemini XS plate reader (Molecular Devices, Sunnyvale, Calif., USA) and the software SoftMax Pro version 5. For monitoring fluorescence, we used an excitation wavelength of λ=485 nm and an emission wavelength of λ=520 nm.
The biochemical cell free hydroxyl radical antioxidant capacity (HORAC) assay investigates the prevention of hydroxyl radical mediated oxidation of to fluorescein in comparison to the strong anti-oxidant gallic acid. The generation of hydroxyl radicals by a cobalt-driven Fenton-like reaction oxidizes fluorescein with progressive loss of fluorescence. The presence of an anti-oxidant reduces the loss of fluorescence over time.
We compared the area under the curve of test compounds to that elicited by gallic acid to obtain the gallic acid equivalent (GAE).

human neurons [4] = assay: Mitochondrial damage to neurons induced by rotenone; type: cell-based; conditions: rotenone 10 μM, drug 10 μM
Experimental: Human neurons were isolated from brain tissues of therapeutically aborted 15-20 week old fetuses, in accordance with ethics approval of the University of Calgary ethics committee, after written informed consent of the pregnant donors. Neurons were isolated as previously described (Vecil et al., 2000) brain specimens were washed in phosphate buffered saline (PBS) to remove blood, followed by removal of meninges. […] Thereafter, the digestion was stopped by addition of 4 ml fetal calf serum (FCS). The solution was filtered through a 132 μm filter and centrifuged (three times, 1,200 rpm, 10 min). Cells were cultured in feeding medium of minimal essential medium (MEM) supplemented with 10% fetal bovine serum (FBS), 1 μM sodium pyruvate, 10 μM glutamine, 1× non-essential amino acids, 0.1% dextrose and 1% penicillin/streptomycin (all culture supplements from Invitrogen, Burlington, Canada). […] For experiments, the neuron-enriched cultures were retrypsinized and cells were plated in poly-L-ornithine pre-coated 96-well plates at a density of 100,000 cells/well in 100 μl of the complete medium supplemented with cytosine arabinoside. […] All conditions were performed in quadruplicates. A day later cells were fixed using 4% paraformaldehyde (PFA) and stored in PBS in 4° C.
The iron stock solution was prepared using 27.8 mg iron(II) sulfate heptahydrate (FeSO4) (Sigma-Aldrich, Oakville, Canada), 10 μl of 17.8M sulfuric acid and 10 ml deionized distilled water. After filtering with a 0.2 μm filter, FeSO4 was added to cells in a final concentration of 25-50 μM in a volume of 50 μl medium to the cells. Rotenone was dissolved in dimethyl sulfoxide (DMSO) and used in a final concentration of 10 μM.

microglia = conditions: shown previously; cited from earlier work
mice = assay: Lysolecithin demyelination of the spinal cord in aging 8-10 months old mice; type: in vivo, mouse; conditions: 20 mg/kg IP immediately after lysolecithin and once per day for 2 days; day 3
From the text: Active demyelinating lesions can be found in MS specimens of all ages sampled, including late in life. Indeed, age has been identified to be a factor in the dreaded conversion from relapsing-remitting into secondary progressive MS. Contributing causes for aging-associated worsening in MS that drives progression include the steady loss of axons with longevity of disease, or the deficient repair of myelin in older compared to younger patients. We tested the hypothesis that the same demyelinating injury is more devastating to axons and myelin as the individual ages.
We thus treated aging 8-10 months old mice with intraperitoneal indapamide (20 mg/kg) immediately after lysolecithin demyelination, and once per day at 20 mg/kg for the next 2 days. Spinal cord tissues were taken for histology.

[5] = 1 h after the last of 16 daily clomipramine injections, 25 mg/kg IP
Experimental: One h after the last administration of clomipramine animals were anesthetized with ketamine/xylazine, blood was taken by an intracardiac puncture for serum, and animals were then subjected to PBS-perfusion. […] Cervical and lumbar cords were snap frozen.
For preparation of samples, 100 pl of ice cold methanol were added to 100 pl of serum in each sample after addition of the internal standard maprotiline. The tubes were vortexed and left on ice for 10 min followed by centrifugation at 10,000×g for 4 min. An equal amount of distilled water was added to each supernatant. Spinal cord samples were each homogenized in 10 volumes of ice-cold 80% methanol. Twenty pl of o-phosphoric acid were added to all samples after addition of internal standard (maprotiline). The tubes were vortexed and left on ice for 10 min, followed by centrifugation at 10,000×g for 4 min and an equal volume of distilled water was added to each supernatant. […]
Calibration curves consisting of varying amounts of authentic clomipramine and N-desmethylclomipramine and the same fixed amount of maprotiline as added to the samples being analyzed were run in parallel through the procedure described above and the ratios of clomipramine and N-desmethylclomipramine to maprotiline were used to determine the amount of drug and metabolite in the serum and spinal cord samples.

[6] = drug 10 μM, vs activated splenocytes
[7] = drug 10 μM 1 h before FeSO4 25 or 50 μM, MAP-2 neurons after 24 h

Row | Compound | inhibition at 10 µM (T-cells; [6]) | viability at 10 µM (human neurons [1]; [7]) | other results
1 | N[C@@H](C(=O)N[C@@H]1C(=O)N2C(C(=O)O)=C(Cl)CS[C@H]12)c1ccccc1 [CEFACLOR] | 23% | 89.9% | –
2 | CN(C)CCCN1c2ccccc2Sc2ccc(Cl)cc21 [CHLORPROMAZINE] | 99.4% | 98.8% | toxic effects in the T-cell proliferation test (T-cells; drug 10 μM): toxic effects
3 | CNCCCN1c2ccccc2CCc2ccccc21 [DESIPRAMINE HYDROCHLORIDE] | 92.2% | 84.4% | protection from FeSO4-mediated neurotoxicity (in words) (human neurons [1]): strong protection; number of PI-positive neurons in response to FeSO4 over 12 h (human neurons [2]): significantly attenuated; mean HORAC-GAE (gallic acid equivalents) [3]: -5.00; neurotoxicity by rotenone (mitochondrial damage) (human neurons [4]): active against damage to the mitochondrial respiratory chain
4 | OCCN(CCO)c1nc(N2CCCCC2)c2nc(N(CCO)CCO)nc(N3CCCCC3)c2n1 [DIPYRIDAMOLE] | 89.3% | 165% | –
5 | CN(C)CCC=C1c2ccccc2COc2ccccc21 [DOXEPIN HYDROCHLORIDE] | 85.3% | 76.9% | microglial activation reduced to (microglia): 46%
6 | CN(C)CCCN1c2ccccc2CCc2ccccc21 [IMIPRAMINE HYDROCHLORIDE] | 66.4% | 106% | –
7 | CC1Cc2ccccc2N1NC(=O)c1ccc(Cl)c(S(N)(=O)=O)c1 (stereo not shown) [INDAPAMIDE] | – | 126% | effect on T-lymphocyte proliferation (in words) (T-cells): no effect on T-lymphocyte proliferation; protection from FeSO4-mediated neurotoxicity (in words) (human neurons [1]; drug 10 μM, human neurons): strong neuroprotective effects against iron toxicity; number of PI-positive neurons in response to FeSO4 over 12 h (human neurons [2]): significantly attenuated; mean HORAC-GAE (gallic acid equivalents) [3]: 4.1; axonal loss (mice): less axonal loss; lesional malondialdehyde level (mice): reduced lesional malondialdehyde; volume of demyelination (mice): smaller volume of demyelination; neurotoxicity by rotenone (mitochondrial damage) (human neurons [4]): reduced neurotoxicity; also recorded: active against damage to the mitochondrial respiratory chain
8 | CC(CCc1ccccc1)NCC(O)c1ccc(O)c(C(N)=O)c1 (stereo not shown) [LABETALOL HYDROCHLORIDE] | 26.8% | 54.4% | neurotoxicity by rotenone (mitochondrial damage) (human neurons [4]; HYDROCHLORIDE): reduced neurotoxicity; also recorded: active against damage to the mitochondrial respiratory chain
9 | OC(c1cc(C(F)(F)F)nc2c(C(F)(F)F)cccc12)C1CCCCN1 (stereo not shown) [MEFLOQUINE] | 62.3% | 47% | –
10 | CC12CC3CC(C)(C1)CC(N)(C3)C2 [MEMANTINE HYDROCHLORIDE] | – | 53.2% | increase of T-cell proliferation (T-cells; [6]): 17.5%
11 | O=C1c2c(O)ccc(O)c2C(=O)c2c(NCCNCCO)ccc(NCCNCCO)c21 [MITOXANTHRONE HYDROCHLORIDE] | 99.7% | 52.5% | toxic effects in the T-cell proliferation test (T-cells; drug 10 μM): toxic effects
12 | N#Cc1ccc2c(c1)N(CCCN1CCC(O)CC1)c1ccccc1S2 [PERICIAZINE] | 28% | 82% | protection from FeSO4-mediated neurotoxicity (in words) (human neurons [1]; drug 10 μM, human neurons): strong protection; neurotoxicity by rotenone (mitochondrial damage) (human neurons [4]): reduced neurotoxicity
13 | CC(CN1c2ccccc2Sc2ccccc21)N(C)C (stereo not shown) [PROMETHAZINE HYDROCHLORIDE] | 74.6% | 105% | neurotoxicity by rotenone (mitochondrial damage) (human neurons [4]): reduced neurotoxicity
14 | O=c1n(CCCN2CCN(c3cccc(Cl)c3)CC2)nc2ccccn12 [TRAZODONE HYDROCHLORIDE] | – | 25.9% | –
15 | CN1CCN(CCCN2c3ccccc3Sc3ccc(C(F)(F)F)cc32)CC1 [TRIFLUOPERAZINE HYDROCHLORIDE] | – | 4.42% | –
16 | CC(CN(C)C)CN1c2ccccc2CCc2ccccc21 (stereo not shown) [TRIMIPRAMINE MALEATE] | 54% | 88.6% | mean HORAC-GAE (gallic acid equivalents) [3]: 4.2; neurotoxicity by rotenone (mitochondrial damage) (human neurons [4]): reduced neurotoxicity
17 | C[C@H](CCC(=O)O)[C@H]1CC[C@H]2[C@@H]3[C@@H](O)C[C@@H]4C[C@H](O)CC[C@]4(C)[C@H]3CC[C@]12C [URSODIOL] | – | 24.6% | –
18 | CN[C@H](CC(C)C)C(=O)N[C@H]1C(=O)N[C@@H](CC(N)=O)C(=O)N[C@H]2C(=O)N[C@H]3C(=O)N[C@H](C(=O)N[C@H](C(=O)O)c4cc(O)cc(O)c4-c4cc3ccc4O)[C@H](O)c3ccc(c(Cl)c3)Oc3cc2cc(c3O[C@@H]2O[C@H](CO)[C@@H](O)[C@H](O)[C@H]2O[C@H]2C[C@](C)(N)[C@H](O)[C@H](C)O2)Oc2ccc(cc2Cl)[C@H]1O [VANCOMYCIN HYDROCHLORIDE] | – | – | viability at 10 µM (human neurons [1]; 24 h): 11.7%
19 | COc1ccc(C(CN(C)C)C2(O)CCCCC2)cc1 (stereo not shown) [VENLAFAXINE] | – | 72.5% | –
20 | COC(=O)[C@@H]1[C@H]2C[C@H]3c4[nH]c5ccccc5c4CCN3C[C@@H]2CC[C@@H]1O [YOHIMBINE HYDROCHLORIDE] | – | 100% | –
21 | Cc1cn([C@H]2C[C@H](N=[N+]=[N-])[C@@H](CO)O2)c(=O)[nH]c1=O [ZIDOVUDINE [AZT]] | – | – | Drug % control (mean): number of neurons normalized to untreated control (human neurons [1]; [7]): 66.49%
22 | CN(C)CCc1c[nH]c2ccc(C[C@H]3COC(=O)N3)cc12 [ZOLMITRIPTAN] | – | 54.9% | –
23 | CNCCCN1c2ccccc2CCc2ccc(Cl)cc21 [desmethylclomipramine] | – | – | mean serum concentration [5]: 101 nM; mean spinal cord level [5]: 1.5 µM
24 | CRESOL | – | – | Drug % control (mean): number of neurons normalized to untreated control (human neurons [1]; [7]): 6.04%
25 | TRIMEPRAZINE TARTRATE | – | – | mean reduction of 3H-thymidine incorporation (T-cell proliferation) (T-cells; [6]): 43.3%; Drug % control (mean): number of neurons normalized to untreated control (human neurons [1]; [7]): 73.31%
